# Reference: ChEMBL document CHEMBL1201862, “PubChem BioAssay data set” (2004)
#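 Exposure lasted 48 hours, with cells grown in 96-well plates and compounds tested at five concentrations. The concentration for 50% growth inhibition is given as GI50.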 The source made the active and inactive calls. No stated cut-off is given here; in the data, active = GI50 up to about 1.1 µM and inactive = higher.
# Experiments:
# Assay in all cases: inhibition of tumour cell growth, NCI panel, 48 h
# [1] = system: 786-0
# [2] = system: A549
# [3] = system: ACHN
# [4] = system: CAKI-1
# [5] = system: CCRF-CEM
# [6] = system: COLO 205
# [7] = system: DLD-1
# [8] = system: DMS-273
# [9] = system: EKVX
# [10] = system: HCC 2998
# [11] = system: HCT-15
# [12] = system: HL-60
# [13] = system: HOP-18
# [14] = system: HOP-62
# [15] = system: HOP-92
# [16] = system: HT-29
# [17] = system: IGROV-1
# [18] = system: K562
# [19] = system: KM12
# [20] = system: LOX IMVI
# [21] = system: LXFL 529
# [22] = system: M14
# [23] = system: M19-MEL
# [24] = system: MOLT-4
# [25] = system: Malme-3M
# [26] = system: NCI-H23
# [27] = system: NCI-H460
# [28] = system: NCI-H522
# [29] = system: OVCAR-4
# [30] = system: OVCAR-8
# [31] = system: RPMI-8226
# [32] = system: SF-539
# [33] = system: SK-MEL-28
# [34] = system: SK-MEL-2
# [35] = system: SK-MEL-5
# [36] = system: SK-OV-3
# [37] = system: SN12C
# [38] = system: SNB-19
# [39] = system: SNB-75
# [40] = system: SNB-78
# [41] = system: SR
# [42] = system: SW-620
# [43] = system: TK-10
# [44] = system: U-251
# [45] = system: UACC-62
# [46] = system: UO-31
# [47] = system: XF498
compound,measurement,setting,value
COc1cc(-c2cc(O)c3cc4c(cc3n2)OCO4)cc(OC)c1OC,GI50,[1],> 100 µM (inactive)
same,GI50,[2],> 100 µM (inactive)
same,GI50,[3],34.7 µM (inactive)
same,GI50,[4],> 100 µM (inactive)
same,GI50,[5],> 100 µM (inactive)
same,GI50,[6],> 100 µM (inactive)
same,GI50,[7],> 100 µM (inactive)
same,GI50,[8],46.2 µM (inactive)
same,GI50,[9],> 100 µM (inactive)
same,GI50,[10],> 100 µM (inactive)
same,GI50,[11],> 100 µM
same,GI50,[12],> 100 µM (inactive)
same,GI50,[13],72.8 µM (inactive)
same,GI50,[14],24.5 µM (inactive)
same,GI50,[15],20.7 µM (inactive)
same,GI50,[16],> 100 µM (inactive)
same,GI50,[17],> 100 µM (inactive)
same,GI50,[18],> 100 µM (inactive)
same,GI50,[19],> 100 µM (inactive)
same,GI50,[20],59.3 µM (inactive)
same,GI50,[21],> 100 µM (inactive)
same,GI50,[22],> 100 µM (inactive)
same,GI50,[23],> 100 µM (inactive)
same,GI50,[24],> 100 µM (inactive)
same,GI50,[25],> 100 µM (inactive)
same,GI50,[26],56.2 µM (inactive)
same,GI50,[27],> 100 µM (inactive)
same,GI50,[28],62.7 µM (inactive)
same,GI50,[29],> 100 µM (inactive)
same,GI50,[30],75.9 µM (inactive)
same,GI50,[31],> 100 µM (inactive)
same,GI50,[32],54.8 µM (inactive)
same,GI50,[33],> 100 µM (inactive)
same,GI50,[34],92.7 µM (inactive)
same,GI50,[35],> 100 µM (inactive)
same,GI50,[36],37.5 µM (inactive)
same,GI50,[37],70.1 µM (inactive)
same,GI50,[38],40.3 µM (inactive)
same,GI50,[39],> 100 µM (inactive)
same,GI50,[40],> 100 µM (inactive)
same,GI50,[41],71 µM (inactive)
same,GI50,[42],> 100 µM (inactive)
same,GI50,[43],> 100 µM (inactive)
same,GI50,[44],60 µM (inactive)
same,GI50,[45],51.5 µM (inactive)
same,GI50,[46],> 100 µM (inactive)
same,GI50,[47],29.8 µM (inactive)
